Columns and labels:
[1] = acute toxicity on administration in the emulsion (infusion); assay type: in vivo; conditions: 120 mg per square meter, diluted to about 0.5 mg/ml in 5% dextrose, approximately one hour co-infusion with cisplatin or doxorubicin
Experimental: (§1) The presently recommended dose of safingol, administered in the formulation described by the present invention, is 120 mg per square meter body surface or about 200 mg for a typical adult patient. A sterile emulsion is first diluted to a convenient drug concentration (typically about 0.5 mg/ml) using 5% dextrose for injection. A standard chemotherapeutic agent, such as cisplatin or doxorubicin, is co-infused with safingol over approximately a one hour time period. This therapy may be safety repeated every 14 to 21 days. […] Such toxicity may include intravascular hemolysis and lung embolism.

[2] = acute toxicity in animals when administered in organic solvents or in aqueous vehicles; assay type: in vivo; conditions: similar doses, may include intravascular hemolysis and lung embolism
Experimental: as §1

[3] = test system: protein kinase C; conditions: in vitro and in vivo; cited from earlier work
[4] = primary amine group of sphingosine; cited from earlier work

Row | SMILES | acute toxicity, administered in the emulsion of the invention [1] | acute toxicity, in organic solvents or in aqueous vehicles [2] | inhibition of protein kinase C [3] | pKa [4]
1 | CCCCCCCCCCCCCCC[C@H](O)[C@@H](N)CO [safingol, (2S,3S)-2-amino-1,3-octadecanediol] | no acute toxicity | unacceptable acute toxicity is observed | potent inhibitors of protein kinase C, both in vitro and in vivo | –
2 | CCCCCCCCCCCCC/C=C/[C@@H](O)[C@@H](N)CO [Sphingosine, 4-sphingenine] | – | – | – | ~ 6.5
